IC50 data for 46 compounds are collected here from patent US20230279020A9, “CARM1 INHIBITORS AND USES THEREOF” (Epizyme, Inc., priority 2013, published 2023).

Each structure is given as a SMILES string.

Human CARM1 (PRMT4), sequence (Q86X55 other isoform, or with tags, fused parts or gaps isoform Q86X55-1): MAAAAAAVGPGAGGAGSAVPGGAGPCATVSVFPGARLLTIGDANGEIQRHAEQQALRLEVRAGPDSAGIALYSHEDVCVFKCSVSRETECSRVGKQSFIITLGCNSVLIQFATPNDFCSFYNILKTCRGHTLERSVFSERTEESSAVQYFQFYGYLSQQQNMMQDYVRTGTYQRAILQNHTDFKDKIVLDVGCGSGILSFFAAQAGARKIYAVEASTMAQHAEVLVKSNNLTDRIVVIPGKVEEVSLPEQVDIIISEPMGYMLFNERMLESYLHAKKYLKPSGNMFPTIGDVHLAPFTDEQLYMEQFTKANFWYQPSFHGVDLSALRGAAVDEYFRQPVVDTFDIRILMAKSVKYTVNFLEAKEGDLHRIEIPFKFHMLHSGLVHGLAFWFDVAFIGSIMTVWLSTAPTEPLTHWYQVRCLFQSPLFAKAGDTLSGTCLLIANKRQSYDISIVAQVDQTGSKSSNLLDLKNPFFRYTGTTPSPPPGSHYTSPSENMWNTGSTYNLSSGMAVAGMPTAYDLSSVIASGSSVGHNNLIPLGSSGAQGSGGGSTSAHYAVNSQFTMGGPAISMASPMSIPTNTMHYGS

The test addresses Human CARM1 (PRMT4) (Homo sapiens (Human), UniProt Q86X55). As to the kind of experiment: CARM1 enzyme assay on peptide substrate (3H-SAM Flashplate). The settings on record: Biochemical potencies, classification codes; read-out: Biochem IC50.
Broadly, the IC50 is the concentration that inhibits the measured activity by half. For the compound `CNCC(O)COc1cccc(-c2nc(-c3c(C)noc3C)c(C)c(N3CCO[C@@H](CN(C)C(=O)OC)C3)n2)c1` (stereo partly shown) [Example 149-1a], the 50% inhibitory concentration (IC50) is below 100 nM.

Take `CCOC(=O)N1CCCCC1CNc1nc(-c2cc(OC[C@@H](O)CNC)ccc2Cl)nc(-c2c(C)noc2C)c1C` (stereo partly shown) [Example 27-3]: the IC50 is below 100 nM.

As to `CNCC(O)COc1cccc(-c2nc(N[C@H]3CCC[C@@H](O)C3)c(C)c(-c3c(C)noc3C)n2)c1` (stereo partly shown) [Example 10-3], the IC50 is below 100 nM.

As for `CNC[C@@H](O)COc1cccc(-c2nc(NCC3CCOCC3)c(C)c(-c3c(C)noc3C)n2)c1` [Example 183-1a], the concentration for half-maximal inhibition (IC50) is below 100 nM.

With `CNC[C@@H](O)COc1ccc(Cl)c(-c2nc(-c3c(C)noc3C)c(C)c(N3Cc4nn(C)c(C)c4C3)n2)c1` [Example 252-3], the half-inhibitory concentration (IC50) is below 100 nM.

`CNCC(O)COc1cccc(-c2nc(Nc3cnc(OC)nc3)cc(-c3c(C)noc3C)n2)c1` (stereo not shown) [Example 72-1a]: the 50% inhibitory concentration (IC50) was below 100 nM.

For `CNCC(O)COc1cccc(-c2nc(NCC3CCOCC3)c(F)c(-c3c(C)noc3C)n2)c1` (stereo not shown) [Example 143-1a], the concentration for half-maximal inhibition (IC50) is below 100 nM.

For `CNC[C@H](O)COc1ccc(F)c(-c2nc(NCCC(C)(C)OC)c(C)c(-c3c(C)noc3C)n2)c1` [Example 83-3], the IC50 was below 100 nM.

As to `CNC[C@@H](O)COc1ccc(Cl)c(-c2nc(-c3c(C)noc3C)c(C)c(N3CC4(CCCO4)C3)n2)c1` [Example 121-3], the IC50 is below 100 nM.

As to `CNCC(O)COc1cccc(-c2nc(-c3c(C)noc3C)c(C)c(N3CCO[C@H](CN(C)C(=O)OC)C3)n2)c1` (stereo partly shown) [Example 127-1a], the IC50 was below 100 nM.

As for `CCOC(=O)N1CC[C@@H](Nc2nc(-c3cc(OC[C@H](O)CNC)ccc3Cl)nc(-c3c(C)noc3C)c2Cl)C1` [Example 129-3], the IC50 is below 100 nM.

As for `CNCC(O)COc1cccc(-c2nc(-c3c(C)noc3C)cc(N3C[C@H]4C[C@@H]3CN4)n2)c1` (stereo partly shown) [Example 109-1a], the IC50 is below 100 nM.

On to `CNC[C@@H](O)COc1ccc(Cl)c(-c2nc(N[C@@H]3CCN(C4CC4)[C@H](C)C3)c(C)c(-c3c(C)noc3C)n2)c1` [Example 139-3], for which the half-inhibitory concentration (IC50) is below 100 nM.

As to `CNCC(O)COc1cccc(-c2nc(N[C@@H]3CCOC3)c(C)c(N3CCC(c4cccnc4)C3)n2)c1` (stereo partly shown) [Example 461-1a], the half-inhibitory concentration (IC50) is below 100 nM.

For the compound `CNCC(O)COc1cccc(-c2nc(-c3c(C)noc3C)cc(N3CCN(C4CCOCC4)CC3)n2)c1` (stereo not shown) [Example 166-1a], the IC50 is below 100 nM.

As for `CCO[C@@H]1CCC[C@@H]1N(CC)c1nc(-c2cc(OC[C@H](O)CNC)ccc2Cl)nc(-c2c(C)noc2C)c1C` [Example 254-3], the half-inhibitory concentration (IC50) is below 100 nM.

On to `CCO[C@H]1CCC[C@H]1Nc1nc(-c2cc(OC[C@H](O)CNC)ccc2Cl)nc(-c2c(C)noc2C)c1C` [Example 242-3], for which the IC50 is below 100 nM.

For `CNCC(O)COc1cccc(-c2nc(N[C@@H]3CCOC3)c(C)c(N3CCC(N4CCOCC4)CC3)n2)c1` (stereo partly shown) [Example 367-1a], the IC50 is below 100 nM.

Consider `CNC[C@@H](O)COc1cccc(-c2nc(-c3c[nH]c4ncncc34)c(C)c(N(C)C3CCOCC3)n2)c1` [Example 526-1a], for which the 50% inhibitory concentration (IC50) was below 100 nM.

As to `CNCC(O)COc1cccc(-c2nc(-c3c(C)noc3C)c(C)c(N3CCN4C(=O)OC[C@@H]4C3)n2)c1` (stereo partly shown) [Example 110-1a], the concentration for half-maximal inhibition (IC50) is below 100 nM.

Regarding `CNCC(O)COc1cccc(-c2nc(NC3CCOC3)c(C)c(N3CC4CC(C3)N4)n2)c1` (stereo not shown) [Example 452-1a], the 50% inhibitory concentration (IC50) is below 100 nM.

On to `CNCC(O)COc1cccc(-c2nc(NC3CCOC3)c(C)c(N3CCN(C)C(C)(C)C3)n2)c1` (stereo not shown) [Example 455-1a], for which the half-inhibitory concentration (IC50) was below 100 nM.

For `CNCC(O)COc1cccc(-c2nc(NC3CCN(C4CC4)CC3)c(C)c(-c3c(C)noc3C)n2)c1` (stereo not shown) [Example 185-1a], the IC50 was below 100 nM.

Take `CNCC(O)COc1cccc(-c2nc(NC3CC(F)C3)c(C)c(-c3c(C)noc3C)n2)c1` (stereo not shown) [Example 3-3]: the IC50 is below 100 nM.

Regarding `CNCC(O)COc1cccc(-c2nc(-c3cnc(CO)n3C)cc(N(C)C3CCOCC3)n2)c1` (stereo not shown) [Example 572-1a], the concentration for half-maximal inhibition (IC50) was below 100 nM.

As for `CNCC(O)COc1cccc(-c2nc(N[C@H]3CCOC3)c(C)c(-n3nc(C)cc3C)n2)c1` (stereo partly shown) [Example 381-1a], the half-inhibitory concentration (IC50) is below 100 nM.

In the case of `CNC[C@@H](O)COc1ccc(Cl)c(-c2nc(N[C@H]3CN(C(=O)OC)C[C@@H]3F)c(C)c(-c3c(C)noc3C)n2)c1` [Example 202-3], the IC50 was below 100 nM.

On to `CNCC(O)COc1cccc(-c2nc(C3=CCCC3)cc(N(C)CCC#N)n2)c1` (stereo not shown) [Example 9-1], for which the IC50 was below 100 nM.

With `CNCC(O)COc1cccc(-c2nc(OCC3CCN(C4CC4)CC3)c(C)c(-c3c(C)noc3C)n2)c1` (stereo not shown) [Example 303-1a], the half-maximal inhibitory concentration (IC50) was below 100 nM.

On to `CNCC(O)COc1cccc(-c2nc(-c3c(C)nn(C)c3C)cc(N(C)C3CCOCC3)n2)c1` (stereo not shown) [Example 528-1a], for which the IC50 was below 100 nM.

For `CNC[C@@H](O)COc1ccc(Cl)c(-c2nc(N[C@@H]3CCO[C@H](C)C3)c(C)c(-c3c(C)noc3C)n2)c1` [Example 132-3], the half-maximal inhibitory concentration (IC50) is below 100 nM.

Regarding `CNCC(O)COc1cc(Cl)cc(-c2nc(NC3CCNCC3)cc(-c3ccncc3)n2)c1` (stereo not shown) [Example 665-1a], the 50% inhibitory concentration (IC50) is below 100 nM.

As to `CNC[C@@H](O)COc1ccc(Cl)c(-c2nc(N[C@H]3CN(C4CC4)C[C@@H]3F)c(C)c(-c3c(C)noc3C)n2)c1` [Example 203-3], the IC50 was below 100 nM.

As for `CNCC(O)COc1cccc(-c2nc(N[C@H]3C[C@@H](O)C3)cc(-c3c(C)noc3C)n2)c1` (stereo partly shown) [Example 41-1a], the half-inhibitory concentration (IC50) is below 100 nM.

As for `CNCC(O)COc1cccc(-c2nc(NCCOC)cc(-c3cnn(CC(C)C)c3)n2)c1` (stereo not shown) [Example 34-1], the IC50 was below 100 nM.

`CNC[C@@H](O)COc1ccc(F)c(-c2nc(-c3c(C)noc3C)cc(N3Cc4cnn(C)c4C3)n2)c1` [Example 275-3]: the half-inhibitory concentration (IC50) is below 100 nM.

Turning to `CNCC(O)COc1cccc(-c2nc(Nc3nnc(C4CC4)s3)c(C)c(-c3c(C)noc3C)n2)c1` (stereo not shown) [Example 217-1a], the half-inhibitory concentration (IC50) was below 100 nM.

Take `CNC[C@@H](O)COc1ccc(Cl)c(-c2nc(-c3cnn(C)c3)c(C)c(-c3c(C)noc3C)n2)c1` [Example 239-3]: the IC50 was below 100 nM.

Consider `CNC[C@@H](O)COc1ccc(Cl)c(-c2nc(N[C@H]3C[C@@](C)(OC)C3)c(C)c(-c3c(C)noc3C)n2)c1` [Example 110-3], for which the IC50 was below 100 nM.

As for `CNCC(O)COc1cccc(-c2nc(N3CCOCC3)cc(N(C)C3CCOCC3)n2)c1` (stereo not shown) [Example 36-1], the IC50 was below 100 nM.

As for `CNCC(O)COc1ccc(C)c(-c2nc(NC3CCN(C(=O)OC)CC3)c(C)c(-c3c(C)noc3C)n2)c1` (stereo not shown) [Example 125-3], the IC50 is below 100 nM.

As for `CCOC(=O)N1CCCC[C@@H]1CNc1nc(-c2cc(OC[C@H](O)CNC)ccc2Cl)nc(-c2c(C)noc2C)c1Cl` [Example 153-3], the IC50 is below 100 nM.

With `CNCC(O)COc1cccc(-c2nc(-c3c(C)noc3C)c(C)c(N(C)CC3CCOCC3)n2)c1` (stereo not shown) [Example 86-1a], the IC50 is below 100 nM.

Consider `CNC[C@@H](O)COc1ccc(Cl)c(-c2nc(-c3c(C)noc3C)c(C)c(N3CC4(CCCOC4)C3)n2)c1` [Example 119-3], for which the half-inhibitory concentration (IC50) is below 100 nM.

Regarding `CNCC(O)COc1cccc(-c2nc(OCC3CCN(C(C)=O)CC3)c(C)c(-c3c(C)noc3C)n2)c1` (stereo not shown) [Example 287-1a], the IC50 was below 100 nM.

`CNCC(O)COc1cccc(-c2nc(NC3CCOC3)c(C)c(N3CCN(C(=O)OC)C(C)(C)C3)n2)c1` (stereo not shown) [Example 447-1a]: the IC50 is below 100 nM.
